Results on 22 compounds are retold here after EP4759807A1, “PROTEOLYSIS TARGETING CHIMERA COMPOUND FOR DEGRADING IRAK4 AND USE THEREOF” (Shenzhen Zhongge Biological Technology Co., Ltd., priority 2023, dated 2025).

For this assay, the target named is T1, IRAK4 (Homo sapiens, UniProt Q9NWZ3).
T1 sequence (Q9NWZ3 1-460): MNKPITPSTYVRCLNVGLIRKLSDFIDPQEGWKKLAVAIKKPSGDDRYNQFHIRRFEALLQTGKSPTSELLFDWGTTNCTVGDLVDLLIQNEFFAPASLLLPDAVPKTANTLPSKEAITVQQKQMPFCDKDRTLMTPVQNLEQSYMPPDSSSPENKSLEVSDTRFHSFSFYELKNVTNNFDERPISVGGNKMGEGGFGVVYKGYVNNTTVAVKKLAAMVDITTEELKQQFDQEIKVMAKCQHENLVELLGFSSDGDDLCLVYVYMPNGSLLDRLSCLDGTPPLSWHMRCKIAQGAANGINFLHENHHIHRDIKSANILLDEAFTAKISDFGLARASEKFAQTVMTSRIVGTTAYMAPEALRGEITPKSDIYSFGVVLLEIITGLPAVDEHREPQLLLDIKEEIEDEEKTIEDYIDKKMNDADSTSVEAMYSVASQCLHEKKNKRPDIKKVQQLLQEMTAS
In words: Hibit fluorescence detection of proteolysis (IRAK4-HiBiT in HEK293T cells). Conditions: for Dmax: HEK-293T; for DC50: IRAK4-HiBiT, HEK293T cells, 24 h. Also noted: host or cells: HEK293T (ATCC). Format: cell-based. Put shortly:
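Degradation read-out: luminescence from lytic HiBiT detection (15 min, room temperature) after 24 h compound exposure (37 °C, 5% CO2) of HEK293T cells transiently expressing IRAK4 fused to a HiBiT tag. Data fitted to a bell-shaped four-parameter model giving two EC50 values.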

Where two headings read alike, the source gives them in different places.

Regarding `Cn1c(=O)n(C2CCC(=O)NC2=O)c2cccc(N3CCN(C4CCN(C[C@H]5CC[C@H](n6cc(-n7cc(-n8ccc9cc(C(N)=O)cnc98)nn7)c(C(F)F)n6)CC5)CC4)CC3)c21` (some centres unmarked) [Example 104, 1-(1-(3-(difluoromethyl)-1-((1r,4r)-4-((4-(4-(1-(2,6-dioxopiperidin-3-yl)-3-methyl-2-oxo-2,3-dihydro-1H-benzo[d]imidazol-4-yl)piperazin-1-yl)piperidin-1-yl)methyl)cyclohexyl)-1H-pyrazol-4-yl)-1H-1,2,3-triazol-4-yl)-1H-pyrrolo[2,3-b]pyridine-5-carboxamide], the Dmax is greater than 80% and the DC50 was less than 0.5 nM.
In the case of `NC(=O)c1cnn2c(-c3cn(-c4cn([C@H]5CC[C@H](CN6CCN(c7ccc8c(c7)C(=O)N(C7CCC(=O)NC7=O)C8=O)CC6)CC5)nc4C(F)F)nn3)ccc2c1` (some centres unmarked) [Example 70, 7-(1-(3-(difluoromethyl)-1-((1r,4r)-4-(4-(2-(2,6-dioxopiperidin-3-yl)-1,3-dioxoisoindolin-5-yl)piperazin-1-yl)methyl)cyclohexyl-1H-pyrazol-4-yl)-1H-1,2,3-triazol-4-yl)pyrrolo[1,2-b]pyridazine-3-carboxamide], the Dmax fell in the range of 70 to 80% and the DC50 was 1 to 5 nM.
In turn, `Cn1c(=O)n(C2CCC(=O)NC2=O)c2cccc(N3CCN(C4CCN(C[C@H]5CC[C@H](n6cc(-n7cc(-c8cnn9cc(C#N)cnc89)nn7)c(C(F)F)n6)CC5)CC4)CC3)c21` (some centres unmarked) [Compound 206] came in with a Dmax of less than 60%. The DC50 (read-out: DC50) fell in the range of 0.5 to 1 nM.
For `C[C@H]1CN(c2ccn3ncc(-c4cn(-c5cn([C@H]6CC[C@H](CN7CC8(CCN(c9cccc%10c9n(C)c(=O)n%10C9CCC(=O)NC9=O)CC8)C7)CC6)nc5C(F)F)nn4)c3n2)CCO1` (some centres unmarked) [Compound 212], in that order: greater than 80% and less than 0.5 nM.
For the compound `Cn1c(=O)n(C2CCC(=O)NC2=O)c2cccc(N3CCC4(CCN(C[C@H]5CC[C@H](n6cc(-n7cc(-c8cnn9ccc(NCC%10CC%10)nc89)nn7)c(C(F)F)n6)CC5)CC4)C3)c21` (some centres unmarked) [Example 109], the Dmax was greater than 80% and the DC50 is 0.5 to 1 nM.
The corresponding values for `Cn1c(=O)n(C2CCC(=O)NC2=O)c2cccc(C#CC3CCN(C[C@H]4CC[C@H](n5cc(-n6cc(-c7cnn8ccc(N9CCOCC9)nc78)nn6)c(C(F)F)n5)CC4)CC3)c21` (some centres unmarked) [Example 17] are 70 to 80% and 1 to 5 nM.
For `Cn1c(=O)n(C2CCC(=O)NC2=O)c2cccc(N3CC4CN(C[C@H]5CC[C@H](n6cc(-n7cc(-c8cnn9ccc(N%10CCOCC%10)nc89)nn7)c(C(F)F)n6)CC5)CC4C3)c21` (stereo partly drawn) [Example 33, 3-(4-((1R,4R)-4-(3-(difluoromethyl)-4-(4-(5-morpholinopyrazolo[[1,5-a]pyrimidin-3-yl)-1H-1,2,3-triazol-1-yl)-1H-pyrazol-1-yl)cyclohexyl)methylhexahydropyrrolo[3,4-c]pyrrol-2(1H)-yl)-3-methyl-2-oxo-2,3-dihydro-1H-benzo[d]imidazol-1-yl)piperidine-2,6-dione], in that order: 60 to 70% and less than 0.5 nM.
Compound `Cn1c(=O)n(C2CCC(=O)NC2=O)c2cccc(C3CN(C4CCN(C[C@H]5CC[C@H](n6cc(-n7cc(-c8ccc9cc(C(N)=O)cnn89)nn7)c(C(F)F)n6)CC5)CC4)C3)c21` (some centres unmarked) [Example 82] gave a Dmax greater than 80% and a DC50 of less than 0.5 nM.
For `Cn1c(=O)n(C2CCC(=O)NC2=O)c2cccc(N3CCN(C4CCN(C[C@H]5CC[C@H](n6cc(-n7cc(-c8cnn9ccc(N%10CCOCC%10)nc89)nn7)c(C(F)F)n6)CC5)CC4)CC3)c21` (some centres unmarked) [Example 40], in that order: greater than 80% and less than 0.5 nM.
The corresponding values for `Cn1c(=O)n(C2CCC(=O)NC2=O)c2cccc(CN3CCC4(CC3)CCN(C[C@H]3CC[C@H](n5cc(-n6cc(-c7cnn8ccc(N9CCOCC9)nc78)nn6)c(C(F)F)n5)CC3)CC4)c21` (some centres unmarked) [Example 6] are less than 60% and less than 0.5 nM.
Take `Cn1c(=O)n(C2CCC(=O)NC2=O)c2cccc(NC[C@H]3CC[C@@H](N(C)C[C@H]4CC[C@H](n5cc(-n6cc(-c7cnn8ccc(N9CCOCC9)nc78)nn6)c(C(F)F)n5)CC4)CC3)c21` (stereo partly drawn) [Example 21, 3-(4-((((1S,4s)-4-((((1r,4R)-4-(3-(difluoromethyl)-4-(4-(5-morpholinopyrazolo[1,5-a]pyrimidin-3-yl)-1H-1,2,3-triazol-1-yl)-1H-pyrazol-1-yl)cyclohexyl)methyl)(methyl)amino)cyclohexyl)methyl)amino)-3-methyl-2-oxo-2,3-dihydro-1H-benzo[d]imidazol-1-yl)piperidine-2,6-dione]: the Dmax is less than 60% and the DC50 was less than 0.5 nM.
Compound `Cn1c(=O)n(C2CCC(=O)NC2=O)c2cccc(N3CCC4(CCN(C[C@H]5CC[C@H](n6cc(-n7cc(-c8cnn9cc(C#N)cnc89)nn7)c(C(F)F)n6)CC5)CC4)CC3)c21` (some centres unmarked) [Compound 199] gave a Dmax of 60 to 70%. Also, the DC50 (read-out: DC50) lay in the range of 1 to 5 nM.
The corresponding values for `CN1CCN(c2ccn3ncc(-c4cn(-c5cn([C@H]6CC[C@H](CN7CCN(C8CCN(c9cccc%10c9n(C)c(=O)n%10C9CCC(=O)NC9=O)CC8)CC7)CC6)nc5C(F)F)nn4)c3n2)CC1` (some centres unmarked) [Compound 231] are 70 to 80% and 0.5 to 1 nM.
The corresponding values for `CN1CCN(c2ccn3ncc(-c4cn(-c5cn([C@H]6CC[C@H](CN7CCC8(CC7)CCN(c7cccc9c7n(C)c(=O)n9C7CCC(=O)NC7=O)CC8)CC6)nc5C(F)F)nn4)c3n2)CC1` (some centres unmarked) [Compound 233] are 70 to 80% and 0.5 to 1 nM.
Compound `Cn1c(=O)n(C2CCC(=O)NC2=O)c2cccc(NC[C@H]3CC[C@H](N(C)C[C@H]4CC[C@H](n5cc(-n6cc(-c7cnn8ccc(N9CCOCC9)nc78)nn6)c(C(F)F)n5)CC4)CC3)c21` (stereo partly drawn) [Example 24, 3-(4-((((1R,4r)-4-((((1r,4R)-4-(3-(difluoromethyl)-4-(4-(5-morpholinopyrazolo[1,5-a]pyrimidin-3-yl)-1H-1,2,3-triazol-1-yl)-1H-pyrazol-1-yl)cyclohexyl)methyl)(methyl)amino)cyclohexyl)methyl)amino)-3-methyl-2-oxo-2,3-dihydro-1H-benzo[d]imidazol-1-yl)piperidine-2,6-dione] had a Dmax of less than 60% and a DC50 of less than 0.5 nM.
The compound `O=C1CCC(N2C(=O)c3ccc(N4CC(CN5CCC(n6cc(-n7cc(-c8cnn9ccc(N%10CCOCC%10)nc89)nn7)c(C(F)F)n6)CC5)C4)cc3C2=O)C(=O)N1` (centres unmarked) [Example 78] had a Dmax of 70 to 80% and a DC50 of 1 to 5 nM.
For the compound `Cn1c(=O)n(C2CCC(=O)NC2=O)c2cccc(NC(=O)CN3CCN(C[C@H]4CC[C@H](n5cc(-n6cc(-n7ccc8cc(C(N)=O)cnc87)nn6)c(C(F)F)n5)CC4)CC3)c21` (some centres unmarked) [Example 107, 1-(1-(3-(difluoromethyl)-1-((1r,4r)-4-((4-(2-((1-(2,6-dioxopiperidin-3-yl)-3-methyl-2-oxo-2,3-dihydro-1H-benzo[d]imidazol-4-yl)amino)-2-oxoethyl)piperazin-1-yl)methyl)cyclohexyl)-1H-pyrazol-4-yl)-1H - 1,2,3-triazol-4-yl)-1H-pyrrolo[2,3-b]pyridine-5-carboxamide], the Dmax is greater than 80% and the DC50 lay in the range of 1 to 5 nM.
Consider `Cn1c(=O)n(C2CCC(=O)NC2=O)c2cccc(NCC3CC4(CCN(C[C@H]5CC[C@H](n6cc(-n7cc(-c8cnn9ccc(N%10CCOCC%10)nc89)nn7)c(C(F)F)n6)CC5)CC4)C3)c21` (some centres unmarked) [Example 9], for which the Dmax was less than 60% and the DC50 was less than 0.5 nM.
For `C[C@@H]1CN(C[C@H]2CC[C@H](n3cc(-n4cc(-c5ccc6cc(C(N)=O)cnn56)nn4)c(C(F)F)n3)CC2)CCN1c1cccc2c1n(C)c(=O)n2C1CCC(=O)NC1=O` (stereo partly drawn) [Example 51, 7-(1-(3-(difluoromethyl)-1-((1R,4r)-4-(((3R)-4-(1-(2,6-dioxopiperidin-3-yl)-3-methyl-2-oxo-2,3-dihydro-1H-benzo[d]imidazol-4-yl)-3-methylpiperazin-1-yl)methyl)cyclohexyl)-1H-pyrazol-4-yl)-1H-1,2,3-triazol-4-yl)pyrrolo[1,2-b]pyridazine-3-carboxamide], in that order: greater than 80% and less than 0.5 nM.
Regarding `C[C@H]1CN(c2cccc3c2n(C)c(=O)n3C2CCC(=O)NC2=O)CCN1C[C@H]1CC[C@H](n2cc(-n3cc(-c4cnn5ccc(N6CCOCC6)nc45)nn3)c(C(F)F)n2)CC1` (some centres unmarked) [Example 52], the Dmax lay within 70 to 80% and the DC50 lay in the range of 0.5 to 1 nM.
For the compound `Cn1c(=O)n(C2CCC(=O)NC2=O)c2cccc(N3CCC4(CCN(C[C@H]5CC[C@H](n6cc(-n7cc(-c8cnn9ccc(NCCC(C)(C)O)nc89)nn7)c(C(F)F)n6)CC5)C4)CC3)c21` (some centres unmarked) [Example 134], the Dmax was greater than 80% and the DC50 was less than 0.5 nM.
For `CN(C[C@H]1CC[C@H](n2cc(-n3cc(-c4cnn5ccc(N6CCOCC6)nc45)nn3)c(C(F)F)n2)CC1)C1CCC2(CC1)CC(Nc1cccc3c1n(C)c(=O)n3C1CCC(=O)NC1=O)C2` (some centres unmarked) [Example 23, 3-(4-((7-((((1r,4r)-4-(3-(difluoromethyl)-4-(4-(5-morpholinopyrazolo[1,5-a]pyrimidin-3-yl)-1H-1,2,3-triazol-1-yl)-1H-pyrazol-1-yl)cyclohexyl)methyl)(methyl)amino)spiro[3.5]nonan-2-yl)amino)-3-methyl-2-oxo-2,3-dihydro-1H-benzo[d]imidazol-1-yl)piperidine-2,6-dione], the Dmax is greater than 80% and the DC50 is less than 0.5 nM.
